According to patent US20240350444A1, “COMBINATION COMPRISING DECANOIC ACID FOR THE TREATMENT OF EPILEPSY” (priority 2017, published 2024):
Where two headings read alike, the source gives them in different places.

Assays:
[1] = patients on the MCT ketogenic diet; cited from earlier work
[2] = biological target: T1, wild type AMPA receptor (GluA3) (Homo sapiens, UniProt P42263); test: Direct AMPA receptor current recording in Xenopus oocytes, wild type GluA3; type: cell-based
T1 construct: expressed in transfected cells; host or cells: Xenopus oocytes
Experimental: (§1) FIG. 1. AMPA (GluA2/3, GluA1/2, or GluA3) receptors were expressed in Xenopus oocytes, and perfused with L-glutamate (100 μM) and the indicated compound, unless stated otherwise. Currents were recorded using TEVC. (A) Representative current traces of inhibitory dose-response curves for perampanel on GluA1/2 and GluA2/3 receptors. (B) Dose-response curve showing inhibition of GluA1/2 (N=10) and GluA2/3 (N=6) by perampanel, with respective IC50 values shown in bar graph inset. (C) Effect of varying perampanel concentrations on glutamate EC50 against GluA1/2. Points were normalised to maximal response and represent the mean and SEM of 6 (glutamate only) and 5 (with 2.5 μM and 5 μM perampanel). (D) Quantitative representation of mean currents recorded in wildtype and mutant GluA3 normalised to maximal responses in the presence of perampanel (N=5 for wildtype and N=6 for mutant) and decanoic acid, DA (N=4 for both wildtype and mutant).
(§2) As previously described (Chang et al. 2016. Brain 139: 431-43), AMPA receptor subunits (GluA2/3, GluA1/2, and GluA3) were expressed in Xenopus oocytes and agonist elicited inward currents were used to measure inhibition by decanoic acid (Sigma Ltd) and perampanel (Apexmol Technology Co. Ltd).
(§3) To confirm this, we expressed a GYKI resistant subunit GluA3 mutant (11) and assessed it for sensitivity to perampanel and decanoic acid (FIG. 1C).

AMPA receptor GluA2/3 = biological target: T2, AMPA receptor GluA2/3 (Homo sapiens, UniProt P42262+P42263); test: Direct AMPA receptor current recording (TEVC) in Xenopus oocytes, GluA2/3; type: cell-based
T2 construct: expressed in transfected cells; host or cells: Xenopus laevis oocytes
Experimental: as §1
(§4) FIG. 2. AMPA (GluA2/3, GluA 1/2, or GluA3) receptors were expressed in Xenopus oocytes, and perfused with L-glutamate (100 μM) and the indicated compound, unless stated otherwise. Currents were recorded using TEVC. (A) Representative current traces of inhibitory dose-response curves for decanoic acid (DA) on GluA2/3 receptors at 1 μM or 4 μM perampanel. Dose-response inhibition curves for decanoic acid at 1μM or 4 μM perampanel on (B) GluA2/3 and (C) GluA1/2 receptors. Points were normalised to maximal response to L-glutamate and solvent, 1 μM perampanel or 4 μM perampanel and represent means and SEM of 8 to 13 readings. Inserts show respective ICs50 values in the presence of perampanel. (D) Representative current traces of inhibitory dose-response curves for perampanel on GluA2/3 receptors at 50 μM to 100 μM decanoic acid. (E), (F) Dose-response inhibition curves for perampanel at 50 μM and 100 μM DA on GluA2/3 (E) and GluA1/2 (F) receptors. Points were normalised to maximal response to L-glutamate with solvent, 50 μM and 100 μM DA and represent means and SEM of 8 to 13 readings. Inserts show respective perampanel IC50 values in the presence of DA. Scale bars correspond to 150 nA in GluA1/2 and 30 nA in GluA2/3 (A), 50 nA (E) and 200 nA (H). Scale bars correspond to 60 nA for +1 μM perampanel and 75 nA for +4 μM perampanel (K) and 200 nA (L).
as §2

[3] = rodent models; cited from earlier work
AMPA receptor GluA1/2 = biological target: T3, AMPA receptor GluA1/2 (Homo sapiens, UniProt P42261+P42262); test: Direct AMPA receptor current recording (TEVC) in Xenopus oocytes, GluA1/2; type: cell-based
T3 construct: expressed in transfected cells; host or cells: Xenopus laevis oocytes
Experimental: as §1, §4, §2

[4] = tested on: PTZ-induced epileptiform activity in rat entorhinal cortex-hippocampal slices; test: Rat hippocampal PTZ seizure-like activity analysis; type: cell-based; details: for IC50: Rattus norvegicus, read-out: decanoic acid IC50 for epileptiform activity; for seizure activity: modelled data
Experimental: FIG. 3. (A) Epileptiform (paroxysmal) activity was induced in rat entorhinal cortex-hippocampal slices by application of PTZ (2 mM) and [K+] (to 6 mM), and recorded over time at fixed perampanel and increasing decanoic acid (DA) concentration. (B) Epileptiform activity was normalised to activity in absence or presence of each concentration (100 nM and 500 nM) and shown at variable DA concentrations. […] Data is derived from at least three biological repeats.
Seizure-like activity was induced, as previously described (Chang et al. 2016. Brain 139: 431-43), in rat entorhinal cortex-hippocamal slices by application of PTZ (2 mM) to the perfusate and [K+] was increased (to 6 mM). Perampanel (100 or 500 nM) or DMSO was applied to the perfusate, and then decanoic acid (Sigma Ltd) was applied at increasing concentrations at 10 minutes intervals. The change in the frequency of the discharges was measured at minute intervals, averaged every 5 minutes, and normalised to baseline. Data were analyzed using Origin (OriginLab Corporation, MA USA) and SPSS (IBM, UK) with IC50 values calculated from fitting data values with a Hill plot. Statistical analysis was performed using a one-way ANOVA with two-way Dunnett's post hoc test.

[5] = Decanoic acid levels in patients on the MCT ketogenic diet; type: in vivo; details: extrapolating the rodent ratio to human brain
[6] = tested on: GYKI resistant subunit GluA3 mutant; test: Direct AMPA receptor current recording in Xenopus oocytes, GYKI resistant GluA3 mutant; type: cell-based
Experimental: as §1, §2, §3

[7] = IC50, inhibition of AMPA receptor currents, perampanel alone, currents elicited by glutamate, Xenopus oocytes (FIG. 1B)
[8] = read-out: glutamate evoked maximal response reduced to

T2 sequence (P42262 22-883 limits assumed): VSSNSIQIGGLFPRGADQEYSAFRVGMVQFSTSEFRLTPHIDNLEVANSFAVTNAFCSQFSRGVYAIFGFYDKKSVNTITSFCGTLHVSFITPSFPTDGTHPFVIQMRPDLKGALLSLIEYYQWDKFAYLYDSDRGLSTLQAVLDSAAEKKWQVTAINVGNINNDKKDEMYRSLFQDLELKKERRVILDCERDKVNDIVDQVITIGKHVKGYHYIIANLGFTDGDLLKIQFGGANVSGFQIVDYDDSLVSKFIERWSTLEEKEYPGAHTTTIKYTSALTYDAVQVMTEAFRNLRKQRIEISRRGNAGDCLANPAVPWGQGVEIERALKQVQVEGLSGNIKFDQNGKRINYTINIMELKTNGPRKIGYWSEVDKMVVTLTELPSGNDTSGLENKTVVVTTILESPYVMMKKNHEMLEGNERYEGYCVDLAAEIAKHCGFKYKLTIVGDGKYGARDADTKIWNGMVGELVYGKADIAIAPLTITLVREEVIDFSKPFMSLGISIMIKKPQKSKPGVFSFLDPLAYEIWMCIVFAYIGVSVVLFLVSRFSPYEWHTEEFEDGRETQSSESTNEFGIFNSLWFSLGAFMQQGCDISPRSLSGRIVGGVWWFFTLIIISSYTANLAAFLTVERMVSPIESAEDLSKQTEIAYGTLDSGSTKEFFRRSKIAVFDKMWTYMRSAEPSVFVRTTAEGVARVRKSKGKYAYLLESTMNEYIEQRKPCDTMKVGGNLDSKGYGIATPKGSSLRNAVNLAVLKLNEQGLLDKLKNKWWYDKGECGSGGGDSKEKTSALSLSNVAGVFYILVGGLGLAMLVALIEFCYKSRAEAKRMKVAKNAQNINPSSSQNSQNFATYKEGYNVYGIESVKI
T2 sequence (P42263 29-894): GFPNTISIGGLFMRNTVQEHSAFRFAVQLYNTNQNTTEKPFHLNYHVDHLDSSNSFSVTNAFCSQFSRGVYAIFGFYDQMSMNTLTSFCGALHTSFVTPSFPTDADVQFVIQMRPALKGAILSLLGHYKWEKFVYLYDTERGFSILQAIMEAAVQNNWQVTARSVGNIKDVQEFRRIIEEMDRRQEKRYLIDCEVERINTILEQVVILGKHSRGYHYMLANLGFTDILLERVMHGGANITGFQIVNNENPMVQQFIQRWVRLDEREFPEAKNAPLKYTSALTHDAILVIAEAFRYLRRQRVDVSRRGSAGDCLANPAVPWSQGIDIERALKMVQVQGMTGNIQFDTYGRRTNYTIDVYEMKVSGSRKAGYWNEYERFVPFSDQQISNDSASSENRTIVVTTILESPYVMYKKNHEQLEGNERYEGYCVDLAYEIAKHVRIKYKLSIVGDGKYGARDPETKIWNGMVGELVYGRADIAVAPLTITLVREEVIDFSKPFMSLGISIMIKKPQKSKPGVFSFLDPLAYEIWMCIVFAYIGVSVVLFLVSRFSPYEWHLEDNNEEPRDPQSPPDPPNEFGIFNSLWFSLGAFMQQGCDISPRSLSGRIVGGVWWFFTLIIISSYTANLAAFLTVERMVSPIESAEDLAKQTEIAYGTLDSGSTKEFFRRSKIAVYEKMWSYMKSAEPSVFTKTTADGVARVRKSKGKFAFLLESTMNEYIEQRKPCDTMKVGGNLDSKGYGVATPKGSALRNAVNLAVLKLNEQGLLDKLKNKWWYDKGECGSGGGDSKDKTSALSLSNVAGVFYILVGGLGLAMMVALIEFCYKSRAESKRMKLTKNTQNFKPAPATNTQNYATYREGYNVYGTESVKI
T3 sequence (P42261 19-906): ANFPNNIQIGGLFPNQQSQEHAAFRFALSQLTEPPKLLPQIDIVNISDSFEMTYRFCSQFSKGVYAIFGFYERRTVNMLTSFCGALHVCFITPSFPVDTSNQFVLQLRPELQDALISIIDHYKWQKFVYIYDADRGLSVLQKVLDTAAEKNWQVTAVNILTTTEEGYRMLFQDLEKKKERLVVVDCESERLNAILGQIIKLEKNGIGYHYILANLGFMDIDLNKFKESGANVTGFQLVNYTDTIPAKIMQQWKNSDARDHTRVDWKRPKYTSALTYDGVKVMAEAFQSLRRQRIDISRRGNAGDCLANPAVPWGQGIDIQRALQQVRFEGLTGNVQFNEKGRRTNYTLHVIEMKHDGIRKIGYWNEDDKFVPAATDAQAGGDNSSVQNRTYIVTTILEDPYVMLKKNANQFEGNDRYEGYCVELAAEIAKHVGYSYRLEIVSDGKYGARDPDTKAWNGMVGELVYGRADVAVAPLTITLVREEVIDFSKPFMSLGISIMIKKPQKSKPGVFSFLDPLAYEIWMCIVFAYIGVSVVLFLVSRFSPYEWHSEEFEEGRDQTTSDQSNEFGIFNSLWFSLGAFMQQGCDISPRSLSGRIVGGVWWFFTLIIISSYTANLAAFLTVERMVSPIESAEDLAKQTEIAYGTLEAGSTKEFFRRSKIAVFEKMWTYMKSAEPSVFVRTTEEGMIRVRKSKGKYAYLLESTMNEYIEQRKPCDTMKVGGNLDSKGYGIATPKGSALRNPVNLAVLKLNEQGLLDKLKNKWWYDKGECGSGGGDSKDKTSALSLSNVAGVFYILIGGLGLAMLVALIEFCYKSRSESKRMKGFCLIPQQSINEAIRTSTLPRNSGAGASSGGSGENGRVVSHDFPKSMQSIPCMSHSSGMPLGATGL
T3 sequence (P42262 22-883 limits assumed): as the sequence (P42262 22-883 limits assumed) above
T1 sequence (P42263 29-894, species assumed): as the sequence (P42263 29-894) above

## CCCCCCCCCC(=O)O [decanoic acid]
[1]
  average concentration of decanoic acid in peripheral blood: 157 µM
[2]; decanoic acid 1 mM
  reduction of glutamate-induced currents: 74.5%
AMPA receptor GluA2/3; in the absence of perampanel, read-out: decanoic acid IC50 for GluA2/3
  IC50: 520 µM
AMPA receptor GluA2/3; in the presence of 1 μM perampanel, read-out: decanoic acid IC50 for GluA2/3
  IC50: 100 µM
AMPA receptor GluA2/3; in the presence of 4 μM perampanel, read-out: decanoic acid IC50 for GluA2/3
  IC50: 40 µM
[3]
  ratio of decanoic acid in brain to blood plasma: around 0.7
AMPA receptor GluA1/2; in the absence of perampanel, read-out: decanoic acid IC50 for GluA1/2
  IC50: 920 µM
AMPA receptor GluA1/2; in the presence of 1 μM perampanel, read-out: decanoic acid IC50 for GluA1/2
  IC50: 210 µM
AMPA receptor GluA1/2; in the presence of 4 μM perampanel, read-out: decanoic acid IC50 for GluA1/2
  IC50: 90 µM
[4]; at 100 nM perampanel
  IC50: 196 µM
[4]; at 500 nM perampanel
  IC50: 122 µM
[4]; without perampanel
  IC50: 352 µM
[4]; decanoic acid 10 μM combined with perampanel 100 nM
  seizure activity: 76.8%
[4]; decanoic acid 10 μM with perampanel 500 nM
  seizure activity (baseline inhibition reduced to): 69.6%
[4]; decanoic acid alone
  concentration giving block of epileptiform activity: 1000 µM
[4]; decanoic acid alone, increasing concentrations
  concentration at which epileptiform activity was reduced: 300 µM
[4]; decanoic acid combined with perampanel 100 nM
  concentration giving block in seizure activity: 600 µM
[5]
  average concentration of decanoic acid in the brain: around 110 μM
[6]; decanoic acid 1 mM
  reduction of glutamate-induced currents: 72.8%

## N#Cc1ccccc1-c1cc(-c2ccccn2)cn(-c2ccccc2)c1=O [perampanel, 3-(2-Cyanophenyl)-5-(2-pyridyl)-1-phenyl-1,2-dihydropyridin-2-one]
[2]; perampanel 20 μM
  reduction of glutamate-induced currents: 94.7%
AMPA receptor GluA2/3; [7]
  IC50: 1.51 µM
AMPA receptor GluA2/3; in combination with decanoic acid, GluA2/3
  reduction in the IC50 value for perampanel: ~3 fold
AMPA receptor GluA2/3; perampanel IC50 in GluA2/3, in the absence of DA (FIG. 2E)
  IC50: 5.1 µM
AMPA receptor GluA2/3; perampanel IC50 in GluA2/3, in the presence of DA at 50 mM
  IC50: 1.7 µM
AMPA receptor GluA2/3; perampanel IC50 in GluA2/3, in the presence of DA at 100 Mm
  IC50: 1.6 µM
AMPA receptor GluA2/3; with 100 μM decanoic acid, subunit combination not specified
  increase in the inhibition of the AMPA receptor by perampanel: 3 fold
AMPA receptor GluA1/2; [7]
  IC50: 1.12 µM
AMPA receptor GluA1/2; in combination with decanoic acid, GluA1/2
  reduction in the IC50 value for perampanel: ~3 fold
AMPA receptor GluA1/2; increasing glutamate concentrations not reversing inhibition (FIG. 1C)
  manner of inhibition of AMPA receptor currents: non-competitive
AMPA receptor GluA1/2; perampanel IC50 in GluA1/2
  IC50: 2.1 µM
AMPA receptor GluA1/2; perampanel IC50 in GluA1/2, in the absence of DA (FIG. 2F)
  IC50: 6.2 µM
AMPA receptor GluA1/2; perampanel IC50 in GluA1/2, in the presence of DA
  IC50: 2.2 µM
AMPA receptor GluA1/2; [8]
  Emax at 2.5 µM: 75.2%
  Emax at 5 µM: 16.9%
[4]; perampanel 100 nM, in the absence of decanoic acid
  seizure activity: 95.6%
[6]; perampanel 20 μM
  reduction of glutamate-induced currents: 54.3%
